Test [1] relates to phosphorylation of FLT3 and its down-stream effector STAT5. Briefly: Western blotting of p-FLT3 and p-STAT5 in MV4-11 cells. Type of test: cell-based. As to conditions: Homo sapiens; at 30 nM treatment, 3 hours, FLT3-ITD positive MV4-11 leukemia cells; read-out: inhibition activity against phosphorylation of FLT3 and its down-stream effector STAT5. In a few lines:
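MV4-11 cells held overnight in IMDM with 0.1% FBS, then 3 million cells treated with compound for 3 h. Whole lysates immunoblotted for p-FLT3 (Tyr-591), p-STAT5 (Tyr-694) and actin. Band intensities at 30 nM compared to DMSO control; % inhibition = (1 − relative intensity) × 100.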

In test [2] the test system is MV4-11 human acute myeloid leukemia cell with FLT3-ITD mutation. Briefly: MV4-11 cell proliferation assay (CellTiter 96). It counts as cell-based. As to conditions: Homo sapiens, MV4-11, 72 h, MV4-11 cells, 72 hours treatment, CellTiter96; read-out: anti-proliferation activity MV4-11 (FLT3-ITD), IC50 ranking. In a few lines:
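Cells seeded at 6500/well in IMDM with 10% heat-inactivated FBS, left overnight at 37 °C, 5% CO2, then exposed to increasing compound concentrations for 72 h. Viability read as absorbance at 490 nm after 2–4 h with CellTiter96 AQueous One reagent.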

The next test deals with T1, FLT3 kinase (Homo sapiens, UniProt P36888).
T1 construct: purchased SignalChem
T1 sequence (P36888 27-993): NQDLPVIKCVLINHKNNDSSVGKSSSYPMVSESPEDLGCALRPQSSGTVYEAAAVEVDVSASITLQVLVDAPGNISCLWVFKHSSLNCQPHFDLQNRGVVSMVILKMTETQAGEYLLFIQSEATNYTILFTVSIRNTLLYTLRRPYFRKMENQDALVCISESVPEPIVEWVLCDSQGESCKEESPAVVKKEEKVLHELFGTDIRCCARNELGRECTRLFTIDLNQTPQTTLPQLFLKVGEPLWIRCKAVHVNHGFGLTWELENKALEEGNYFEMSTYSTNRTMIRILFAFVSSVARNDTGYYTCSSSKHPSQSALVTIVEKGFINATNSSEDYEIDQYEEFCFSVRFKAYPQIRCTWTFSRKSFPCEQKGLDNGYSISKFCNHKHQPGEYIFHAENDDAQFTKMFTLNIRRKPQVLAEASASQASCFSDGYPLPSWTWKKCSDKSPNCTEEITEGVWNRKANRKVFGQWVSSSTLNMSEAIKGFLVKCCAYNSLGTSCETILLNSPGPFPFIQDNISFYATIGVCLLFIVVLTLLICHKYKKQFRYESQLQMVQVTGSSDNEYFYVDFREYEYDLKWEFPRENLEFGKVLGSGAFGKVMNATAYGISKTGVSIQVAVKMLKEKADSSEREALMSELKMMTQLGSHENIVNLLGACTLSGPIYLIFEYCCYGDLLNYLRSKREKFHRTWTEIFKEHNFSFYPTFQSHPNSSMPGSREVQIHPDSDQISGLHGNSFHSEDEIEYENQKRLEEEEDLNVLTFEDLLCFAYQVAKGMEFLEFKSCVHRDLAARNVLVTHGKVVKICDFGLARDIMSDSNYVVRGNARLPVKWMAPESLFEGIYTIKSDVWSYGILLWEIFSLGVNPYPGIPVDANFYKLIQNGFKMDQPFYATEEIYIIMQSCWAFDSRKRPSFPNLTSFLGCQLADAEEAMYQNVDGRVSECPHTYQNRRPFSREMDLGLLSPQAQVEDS
Briefly: FLT3 kinase assay (AlphaScreen). It counts as biochemical. As to conditions: read-out: Ranking of IC50 values, FLT3. Summed up:
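AlphaScreen detection of biotin-poly(Glu4:Tyr1) phosphorylation by 1.5 ng recombinant FLT3 (10 μM ATP, pH 7.0 MOPS, 10 mM MgCl2; 30 °C, 30 min, EDTA quench). IC50 values derived from serially diluted compound tested in duplicate.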

SMILES strings stand for the structures. Some results are limits rather than exact numbers.

`CN(C)Cc1ccc(-c2cc3c(s2)Cc2c(-c4ccc5cnn(C)c5c4)n[nH]c2-3)cc1` [Compound 94, N,N-dimethyl-1-(4-(3-(1-methyl-1H-indazol-6-yl)-1,4-dihydrothieno [2′,3′:4,5]cyclopenta [1,2-c]pyrazol-6-yl)phenyl)methanamine]: the inhibition at 0.03 µM in test [1] is more than 50%. Further, the IC50 in test [2] was less than 30 nM; on FLT3 kinase, less than 1 nM.

As to `CN1CCN(Cc2ccc(-c3cc4c(s3)Cc3c(-c5ccc6cn[nH]c6c5)n[nH]c3-4)cc2)CC1` [Compound 83, 3-(1H-indazol-6-yl)-6-(4-((4-methylpiperazin-1-yl)methyl)phenyl)-1,4-dihydrothieno[2′,3′:4,5] cyclopenta[1,2-c]pyrazole], the inhibition at 0.03 µM in test [1] was more than 50%. The IC50 is less than 30 nM in test [2] and less than 1 nM at FLT3 kinase.
